Columns and labels:
Italian ryegrass = experiment: Test E postemergence; type: in vivo, Lolium multiflorum
Excerpt: (§1) Seeds of plant species selected from corn (Zea mays), soybean (Glycine max), velvetleaf (Abutilon theophrasti), lambsquarters (Chenopodium album), wild poinsettia (Euphorbia heterophylla), palmer pigweed (Amaranthus palmeri), waterhemp (common waterhemp, Amaranthus rudis), surinam grass (Brachiaria decumbens), large (Lg) crabgrass (Digitaria sanguinalis), Brazilian crabgrass (Digitaria horizontalis), fall panicum (Panicum dichotomiflorum), giant foxtail (Setaria faberii), green foxtail (Setaria viridis), goosegrass (Eleusine indica), johnsongrass (Sorghum halepense), ragweed (common ragweed, Ambrosia elatior), barnyardgrass (Echinochloa crus-galli), sandbur (southern sandbur, Cenchrus echinatus), arrowleaf sida (Sida rhombifolia), Italian ryegrass (Lolium multiflorum), dayflower (Virginia (VA) dayflower, Commelina virginica), field bindweed (Convolvulus arvensis), morningglory (Ipomoea coccinea), nightshade (eastern black nightshade, Solanum ptycanthum), kochia (Kochia scoparia), yellow nutsedge (Cyperus esculentus), cocklebur (common cocklebur, Xanthium strumarium), smartweed (ladysthumb smartweed, and hairy beggarticks (Bidens pilosa), were planted into a silt loam soil and treated preemergence with test chemicals formulated in a non-phytotoxic solvent mixture which included a surfactant.
(§2) At the same time, plants from these crop and weed species and also horseweed (Canada horseweed, Conyza canadensis), waterhemp_RES1, (ALS & Triazine resistant common waterhemp, Amaranthus rudis), and waterhemp_RES2, (ALS & HPPD resistant common waterhemp, Amaranthus rudis) were planted in pots containing Redi-Earth® planting medium (Scotts Company, 14111 Scottslawn Road, Marysville, Ohio 43041) comprising spaghnum peat moss, vermiculite, wetting agent and starter nutrients were treated with postemergence applications of test chemicals formulated in the same manner. Plants ranged in height from 2 to 18 cm for postemergence treatments (1- to 4-leaf stage). Treated plants and controls were maintained in a greenhouse for 14 to 21 days, after which time all species were compared to controls and visually evaluated. Plant response ratings, summarized in Table E, are based on a scale of 0 to 100 where 0 is no effect and 100 is complete control. A dash (-) response means no test result.

hairy beggarticks = experiment: Test E postemergence; type: in vivo, Bidens pilosa
Excerpt: as §1, §2

bluegrass = experiment: Test D preemergence; type: in vivo, Poa annua
Method in brief: (§3)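 Seeds sown in silt loam soil got preemergence sprays; plants in peat/vermiculite potting medium were sprayed postemergence at 2–18 cm (1- to 4-leaf stage). Chemicals were formulated in a non-phytotoxic solvent mixture with surfactant. After 7 to 21 days in a controlled environment, injury was rated visually versus controls, 0 (no effect) to 100 (complete control).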

blackgrass [1] = experiment: Test D preemergence; type: in vivo, Alopecurus myosuroides
Method in brief: as §3

canarygrass = experiment: Test D preemergence; type: in vivo, Phalaris minor
Method in brief: as §3

speedwell = experiment: Test D preemergence; type: in vivo, Veronica persica
Method in brief: as §3

spring barley = experiment: Test D preemergence; type: in vivo, Hordeum vulgare
Method in brief: as §3

winter barley = experiment: Test D preemergence; type: in vivo, Hordeum vulgare
Method in brief: as §3

wild buckwheat = experiment: Test D preemergence; type: in vivo, Polygonum convolvulus
Method in brief: as §3

windgrass = experiment: Test D preemergence; type: in vivo, Apera spica-venti
Method in brief: as §3

blackgrass [2] = experiment: Test D postemergence; type: in vivo, Alopecurus myosuroides; conditions: Postemergence, scale 0 to 100 (0 no effect, 100 complete control)
Method in brief: as §3

chickweed = experiment: Test D postemergence; type: in vivo, Stellaria media
Method in brief: as §3

pigweed = experiment: Test D postemergence; type: in vivo, Amaranthus retroflexus
Method in brief: as §3

[3] = Postemergence, 31 g ai/ha, scale 0 to 100
[4] = Postemergence, 62 g ai/ha, scale 0 to 100
[5] = Postemergence, 125 g ai/ha, scale 0 to 100
[6] = Postemergence, 250 g ai/ha, scale 0 to 100
[7] = postemergence, 16 g ai/ha, scale 0 to 100, 0 no effect, 100 complete control
[8] = postemergence, 8 g ai/ha, scale 0 to 100, 0 no effect, 100 complete control
[9] = 31 g ai/ha, scale 0 (no effect) to 100 (complete control)
[10] = 62 g ai/ha, scale 0 to 100 (0 no effect, 100 complete control)
[11] = 125 g ai/ha, scale 0 to 100 (0 no effect, 100 complete control)
[12] = 250 g ai/ha, scale 0 to 100 (0 no effect, 100 complete control)

In the case of `Fc1cnc(Oc2ccccc2-n2cc(Br)cn2)nc1` [Compound 10, 2-[2-(4-bromo-1H-pyrazol-1-yl)phenoxy]-5-fluoropyrimidine], the pest or weed control at 31 g/ha (Italian ryegrass; Lolium multiflorum, post-emergence, Postemergence, 31 g ai/ha, scale 0 to 100, read-out: Plant response rating, Ryegrass, Italian) was 0%, the pest or weed control at 62 g/ha (Italian ryegrass; Lolium multiflorum, post-emergence, Postemergence, 62 g ai/ha, scale 0 to 100, read-out: Plant response rating, Ryegrass, Italian) was 0% and the pest or weed control at 125 g/ha (Italian ryegrass; Lolium multiflorum, post-emergence, Postemergence, 125 g ai/ha, scale 0 to 100, read-out: Plant response rating, Ryegrass, Italian) was 0%. It also gave a pest or weed control at 250 g/ha (Italian ryegrass; Lolium multiflorum, post-emergence, Postemergence, 250 g ai/ha, scale 0 to 100, read-out: Plant response rating, Ryegrass, Italian) of 0%, a pest or weed control at 16 g/ha (Italian ryegrass; Lolium multiflorum, post-emergence, postemergence, 16 g ai/ha, scale 0 to 100, 0 no effect, 100 complete control, read-out: Plant response rating, Ryegrass, Italian) of 0% and a pest or weed control at 31 g/ha (hairy beggarticks; Bidens pilosa, post-emergence, Postemergence, 31 g ai/ha, scale 0 to 100, read-out: Plant response rating, Beggarticks) of 30%. The pest or weed control at 62 g/ha (hairy beggarticks; Bidens pilosa, post-emergence, Postemergence, 62 g ai/ha, scale 0 to 100, read-out: Plant response rating, Beggarticks) was 40%, the pest or weed control at 125 g/ha (hairy beggarticks; Bidens pilosa, post-emergence, Postemergence, 125 g ai/ha, scale 0 to 100, read-out: Plant response rating, Beggarticks) was 50% and the pest or weed control at 250 g/ha (hairy beggarticks; Bidens pilosa, post-emergence, Postemergence, 250 g ai/ha, scale 0 to 100, read-out: Plant response rating, Beggarticks) was 80%. For the same compound, the pest or weed control at 16 g/ha (hairy beggarticks; Bidens pilosa, post-emergence, postemergence, 16 g ai/ha, scale 0 to 100, 0 no effect, 100 complete control, read-out: Plant response rating, Beggarticks) was 10%.

For `FC(F)(F)c1cnn(-c2ccccc2Oc2ncc(Cl)cn2)c1` [Compound 16], the “Plant response rating, Ryegrass, Italian” value (Italian ryegrass; [3]) was 0, the “Plant response rating, Ryegrass, Italian” value (Italian ryegrass; [4]) was 0 and the “Plant response rating, Ryegrass, Italian” value (Italian ryegrass; [5]) was 0. For the same compound, the “Plant response rating, Ryegrass, Italian” value (Italian ryegrass; [6]) was 0, the “Plant response rating, Ryegrass, Italian” value (Italian ryegrass; [7]) was 0 and the “Plant response rating, Beggarticks” value (hairy beggarticks; [3]) was 30. The “Plant response rating, Beggarticks” value (hairy beggarticks; [4]) was 50, the “Plant response rating, Beggarticks” value (hairy beggarticks; [5]) was 50 and the “Plant response rating, Beggarticks” value (hairy beggarticks; [6]) was 60. The “Plant response rating, Beggarticks” value (hairy beggarticks; [7]) was 30.

In the case of `Clc1cnc(Oc2cccc(Br)c2-n2cc(Br)cn2)nc1` [Compound 65], the “Plant response rating, Ryegrass, Italian” value (Italian ryegrass; [3]) was 0, the “Plant response rating, Ryegrass, Italian” value (Italian ryegrass; [4]) was 0 and the “Plant response rating, Ryegrass, Italian” value (Italian ryegrass; [5]) was 0. The “Plant response rating, Ryegrass, Italian” value (Italian ryegrass; [8]) was 0, the “Plant response rating, Ryegrass, Italian” value (Italian ryegrass; [7]) was 0 and the “Plant response rating, Beggarticks” value (hairy beggarticks; [3]) was 40. For the same compound, the “Plant response rating, Beggarticks” value (hairy beggarticks; [4]) was 50, the “Plant response rating, Beggarticks” value (hairy beggarticks; [5]) was 50 and the “Plant response rating, Beggarticks” value (hairy beggarticks; [8]) was 20. The “Plant response rating, Beggarticks” value (hairy beggarticks; [7]) was 35.

`N#Cc1cccc(Oc2ncc(Cl)cn2)c1-n1cc(-n2ccc(C(F)(F)F)n2)cn1` [Compound 284] was tested, and the “Plant response rating, Bluegrass” value (bluegrass; [9]) was 0, the “Plant response rating, Bluegrass” value (bluegrass; 62 g ai/ha, scale 0-100) was 15 and the “Plant response rating, Bluegrass” value (bluegrass; 125 g ai/ha, scale 0-100) was 20. For the same compound, the “Plant response rating, Bluegrass” value (bluegrass; 250 g ai/ha, scale 0-100) was 25, the “Plant response rating, Blackgrass” value (blackgrass [1]; [9]) was 0 and the “Plant response rating, Blackgrass” value (blackgrass [1]; 62 g ai/ha, scale 0-100) was 10. For the same compound, the “Plant response rating, Blackgrass” value (blackgrass [1]; 125 g ai/ha, scale 0-100) was 35, the “Plant response rating, Blackgrass” value (blackgrass [1]; 250 g ai/ha, scale 0-100) was 65 and the “Plant response rating, Canarygrass” value (canarygrass; [9]) was 30. The “Plant response rating, Canarygrass” value (canarygrass; 62 g ai/ha, scale 0-100) was 25, the “Plant response rating, Canarygrass” value (canarygrass; 125 g ai/ha, scale 0-100) was 35 and the “Plant response rating, Canarygrass” value (canarygrass; 250 g ai/ha, scale 0-100) was 60. The “Plant response rating, Speedwell” value (speedwell; [9]) was 0, the “Plant response rating, Speedwell” value (speedwell; 125 g ai/ha, scale 0-100) was 100 and the “Plant response rating, Speedwell” value (speedwell; 250 g ai/ha, scale 0-100) was 100. For the same compound, the “Plant response rating, Barley, Spring” value (spring barley; [9]) was 10, the “Plant response rating, Barley, Spring” value (spring barley; 62 g ai/ha, scale 0-100) was 15 and the “Plant response rating, Barley, Spring” value (spring barley; 125 g ai/ha, scale 0-100) was 25. For the same compound, the “Plant response rating, Barley, Spring” value (spring barley; 250 g ai/ha, scale 0-100) was 35, the “Plant response rating, Barley, Winter” value (winter barley; [9]) was 0 and the “Plant response rating, Barley, Winter” value (winter barley; 62 g ai/ha, scale 0-100) was 0. For the same compound, the “Plant response rating, Barley, Winter” value (winter barley; 125 g ai/ha, scale 0-100) was 15, the “Plant response rating, Barley, Winter” value (winter barley; 250 g ai/ha, scale 0-100) was 20 and the “Plant response rating, Buckwheat, Wild” value (wild buckwheat; [9]) was 10. The “Plant response rating, Buckwheat, Wild” value (wild buckwheat; 62 g ai/ha, scale 0-100) was 20, the “Plant response rating, Buckwheat, Wild” value (wild buckwheat; 125 g ai/ha, scale 0-100) was 70 and the “Plant response rating, Buckwheat, Wild” value (wild buckwheat; 250 g ai/ha, scale 0-100) was 100. The “Plant response rating, Windgrass” value (windgrass; [9]) was 20, the “Plant response rating, Windgrass” value (windgrass; 125 g ai/ha, scale 0-100) was 45 and the “Plant response rating, Windgrass” value (windgrass; 250 g ai/ha, scale 0-100) was 55. For the same compound, the “Plant response rating, Blackgrass” value (blackgrass [2]; 62 g ai/ha) was 25, the “Plant response rating, Blackgrass” value (blackgrass [2]; 31 g ai/ha) was 20 and the “Plant response rating, Blackgrass” value (blackgrass [2]; 125 g ai/ha) was 30. The “Plant response rating, Blackgrass” value (blackgrass [2]; 250 g ai/ha) was 35, the “Plant response rating, Chickweed” value (chickweed; 31 g ai/ha, scale 0-100) was 80 and the “Plant response rating, Chickweed” value (chickweed; [10]) was 85. For the same compound, the “Plant response rating, Chickweed” value (chickweed; [11]) was 90, the “Plant response rating, Chickweed” value (chickweed; [12]) was 100 and the “Plant response rating, Pigweed” value (pigweed; 31 g ai/ha, scale 0-100) was 100. For the same compound, the “Plant response rating, Pigweed” value (pigweed; [10]) was 100, the “Plant response rating, Pigweed” value (pigweed; [11]) was 100 and the “Plant response rating, Pigweed” value (pigweed; [12]) was 100.

Reference: US9695155B2, “Herbicidal substituted pyrimidinyloxy benzene compounds” (E. I. DU PONT DE NEMOURS AND COMPANY, priority 2013, dated 2017)
